Results on two molecules are retold here after the NIST ThermoML archive (doi:10.1016/j.jct.2016.06.023).

The nature of data set [1]: mn = molality of the nth substance listed, in mol/kg. The conditions noted are these: 101.3 kPa, Liquid, Vibrating tube method, m2 = 0.
The conditions of data set [2]: 101.3 kPa, Liquid, Vibrating tube method.

± gives the expanded uncertainty stated by the source.

As for `O` [water] + O=C(O)CC(=O)O, the mass density in data set [1] (278.15 K) was determined as 999.99 ± 0.4 kg/m3; in data set [1] (283.15 K) it was 999.73 ± 0.41 kg/m3; in data set [1] (308.15 K) it was 994.06 ± 0.41 kg/m3; in data set [1] (328.15 K) it was 985.73 ± 0.4 kg/m3; in data set [1] (333.15 K) it was 983.24 ± 0.4 kg/m3; in data set [1] (338.15 K) it was 980.59 ± 0.4 kg/m3. The mass density in data set [1] (343.15 K) stood at 977.81 ± 0.4 kg/m3.

`O` [water]: the mass density amounted to 999.99 ± 0.4 kg/m3 in data set [2] (278.15 K); 999.73 ± 0.41 kg/m3 in data set [2] (283.15 K); 994.06 ± 0.41 kg/m3 in data set [2] (308.15 K); 985.73 ± 0.4 kg/m3 in data set [2] (328.15 K); 983.24 ± 0.4 kg/m3 in data set [2] (333.15 K); 980.59 ± 0.4 kg/m3 in data set [2] (338.15 K). Further, the mass density in data set [2] (343.15 K) came to 977.81 ± 0.4 kg/m3.

By mass density is commonly meant the mass of a sample divided by its volume.
